Usually IC50 stands for the midpoint of a concentration-inhibition curve.

Assay [1] deals with T1, rat α1a adrenergic receptor (Rattus norvegicus, UniProt P43140).
T1 construct: Eurofins Panlabs Taiwan, Ltd. (contract assay)
T1 sequence (P43140 1-466): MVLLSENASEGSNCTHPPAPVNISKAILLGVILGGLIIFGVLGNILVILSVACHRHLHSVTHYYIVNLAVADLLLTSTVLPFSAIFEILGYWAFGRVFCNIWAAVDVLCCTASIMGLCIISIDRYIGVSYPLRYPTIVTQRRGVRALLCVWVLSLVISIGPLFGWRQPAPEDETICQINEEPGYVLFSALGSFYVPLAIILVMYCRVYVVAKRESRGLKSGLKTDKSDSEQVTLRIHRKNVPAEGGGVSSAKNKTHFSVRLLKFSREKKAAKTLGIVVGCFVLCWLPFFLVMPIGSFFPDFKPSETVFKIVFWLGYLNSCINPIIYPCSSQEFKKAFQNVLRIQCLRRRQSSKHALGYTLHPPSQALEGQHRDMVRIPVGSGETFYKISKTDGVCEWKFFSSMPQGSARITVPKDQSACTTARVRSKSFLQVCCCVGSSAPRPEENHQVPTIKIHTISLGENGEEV
Put plainly: Adrenoceptor binding, [3H]-prazosin competition. Particulars: [3H]-prazosin 0.25 nM, triplicate, mean±SD; read-out: IC50, α-adrenoceptor binding. The procedure: Analysis of Doxazosin and analog binding to rat α1a adrenergic receptor was performed by Eurofins Panlabs Taiwan, Ltd. (Taiwan). [^3H]-prazosin at 0.25 nM was used as the radioligand. […] Non-specific binding was defined by use of 10 μM phentolamine. Incubations were terminated by vacuum filtration over 0.1% PEI pretreated glass fiber filters and filters were washed for 10 s with ice cold 0.1M NaCl and radioactivity retained on the filters was determined by liquid scintillation spectrometry. IC50 values were determined by a non-linear regression analysis using GraphPad Prism v.5 (GraphPad).

A further assay concerns the target EphA2 (Homo sapiens, UniProt P29317). Put plainly: EphA2 internalization in MDA-MB-231 cells (immunofluorescence, Example 2). The class given is cell-based. Particulars: 60 min, Doxazosin 50 μM. Also on record: expressed in transfected cells; host or cells: MDA-MB-231 (MDA-231-A2 / MDA-MB-231-A2), puromycin selected. The protocol: This was performed using the MDA-MB-231 cell line. This cell line spreads well in culture, thereby facilitating immunofluorescence detection of cell surface and intracellular EphA2 (FIG. 28). […] MDA-MB-231 cells were plated in 24-well plates on 10 mm square coverslips coated with 10 μg/ml fibronectin and incubated 24-48 hrs before treatment with 50 μM Doxazosin and various doses of compound 27 (0.4, 2, 10, 50 μM) in 0.5% DMSO for 1 hr. As another positive control, cells were treated with 2 μg/ml ephrin-A1-Fc. Cells were then washed with PBS and fixed with 4% paraformaldehyde (Electron Microscopy Sciences, Hatfield, PA) on ice for 10 min, followed by washing and permeabilization with 0.4% NP-40 for 10 min on ice. […] Cells were then incubated in primary mouse EphA2 antibody (D7, 1:100) in 0.1% BSA/PBS for 1 hr at room temperature, washed in PBS and BSA/PBS, followed by incubation in secondary donkey anti-mouse Alexa Fluor 488 antibody (1:300) in BSA/PBS for 30 min at room temperature. Cells were washed in PBS and BSA/PBS, followed by mounting in DAPI Mounting Medium (Electron Microscopy Sciences). Images were taken with a Leica microscope.

Assay [2] concerns MDA-MB-231 breast cancer cells. Put plainly: Haptotactic cell migration toward fibronectin, MDA-MB-231. The format is cell-based. Particulars: MDA-MB-231, 4 hours. From the text: One of the well-established functions of Eph receptors is the ligand-dependent repulsive guidance of cell migration. As a ligand-mimicking agonist for EphA2, doxazosin is expected to activate EphA2 on tumor cells and repulse migrating tumor cells in vitro. To test this possibility, we first investigated the effects of doxazosin on integrin-mediated haptotactic cell migration toward fibronectin in a modified Boyden chamber cell migration assay. […] The inhibitory effects were observed when doxazosin was presented either in the bottom chamber, or in both top and bottom chambers in the Transwell assay system. […] Therefore, doxazosin can recapitulate a key function attributed to its native ligands, i.e., negative regulation of cell migration.

The target of the next assay is T2, EphA3 (Homo sapiens, UniProt P29320).
T2 construct: expressed in transfected cells; host or cells: HEK 293
T2 sequence (P29320 21-983): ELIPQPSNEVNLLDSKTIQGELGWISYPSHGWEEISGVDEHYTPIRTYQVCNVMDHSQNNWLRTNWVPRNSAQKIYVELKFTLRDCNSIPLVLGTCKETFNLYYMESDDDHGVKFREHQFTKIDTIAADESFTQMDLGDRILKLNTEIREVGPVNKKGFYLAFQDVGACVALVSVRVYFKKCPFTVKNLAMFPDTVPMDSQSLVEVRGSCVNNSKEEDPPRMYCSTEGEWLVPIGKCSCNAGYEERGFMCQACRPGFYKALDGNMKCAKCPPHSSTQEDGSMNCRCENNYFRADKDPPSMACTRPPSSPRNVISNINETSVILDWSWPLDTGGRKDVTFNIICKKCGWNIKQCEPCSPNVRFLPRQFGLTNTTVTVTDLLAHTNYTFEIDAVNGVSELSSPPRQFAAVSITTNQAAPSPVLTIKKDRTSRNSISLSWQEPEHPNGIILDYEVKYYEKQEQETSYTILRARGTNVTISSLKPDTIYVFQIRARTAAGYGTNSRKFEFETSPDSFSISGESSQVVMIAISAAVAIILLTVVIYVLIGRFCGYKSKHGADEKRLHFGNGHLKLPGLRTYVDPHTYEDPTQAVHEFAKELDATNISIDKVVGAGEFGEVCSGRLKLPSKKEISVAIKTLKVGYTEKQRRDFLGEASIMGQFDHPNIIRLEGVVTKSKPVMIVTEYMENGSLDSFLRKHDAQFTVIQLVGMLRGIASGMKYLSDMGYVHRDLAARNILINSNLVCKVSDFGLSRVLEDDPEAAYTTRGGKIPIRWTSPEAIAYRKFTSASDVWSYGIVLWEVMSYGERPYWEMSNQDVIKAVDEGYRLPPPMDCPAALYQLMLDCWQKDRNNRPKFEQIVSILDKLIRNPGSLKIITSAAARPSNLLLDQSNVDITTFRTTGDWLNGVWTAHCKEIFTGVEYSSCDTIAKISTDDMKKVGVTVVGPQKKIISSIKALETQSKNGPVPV
Put plainly: EphA3 activation in HEK 293 cells overexpressing EphA3. Particulars: HEK 293 overexpressing EphA3, compared to EphA2 and EphA4. The format is cell-based.

Assay [3] has as its system DU145 and PC-3 cell xenografts. Particulars: previously shown, independent of α1-adrenoreceptor; cited from earlier work.

EphA2, sequence (P29317 24-976): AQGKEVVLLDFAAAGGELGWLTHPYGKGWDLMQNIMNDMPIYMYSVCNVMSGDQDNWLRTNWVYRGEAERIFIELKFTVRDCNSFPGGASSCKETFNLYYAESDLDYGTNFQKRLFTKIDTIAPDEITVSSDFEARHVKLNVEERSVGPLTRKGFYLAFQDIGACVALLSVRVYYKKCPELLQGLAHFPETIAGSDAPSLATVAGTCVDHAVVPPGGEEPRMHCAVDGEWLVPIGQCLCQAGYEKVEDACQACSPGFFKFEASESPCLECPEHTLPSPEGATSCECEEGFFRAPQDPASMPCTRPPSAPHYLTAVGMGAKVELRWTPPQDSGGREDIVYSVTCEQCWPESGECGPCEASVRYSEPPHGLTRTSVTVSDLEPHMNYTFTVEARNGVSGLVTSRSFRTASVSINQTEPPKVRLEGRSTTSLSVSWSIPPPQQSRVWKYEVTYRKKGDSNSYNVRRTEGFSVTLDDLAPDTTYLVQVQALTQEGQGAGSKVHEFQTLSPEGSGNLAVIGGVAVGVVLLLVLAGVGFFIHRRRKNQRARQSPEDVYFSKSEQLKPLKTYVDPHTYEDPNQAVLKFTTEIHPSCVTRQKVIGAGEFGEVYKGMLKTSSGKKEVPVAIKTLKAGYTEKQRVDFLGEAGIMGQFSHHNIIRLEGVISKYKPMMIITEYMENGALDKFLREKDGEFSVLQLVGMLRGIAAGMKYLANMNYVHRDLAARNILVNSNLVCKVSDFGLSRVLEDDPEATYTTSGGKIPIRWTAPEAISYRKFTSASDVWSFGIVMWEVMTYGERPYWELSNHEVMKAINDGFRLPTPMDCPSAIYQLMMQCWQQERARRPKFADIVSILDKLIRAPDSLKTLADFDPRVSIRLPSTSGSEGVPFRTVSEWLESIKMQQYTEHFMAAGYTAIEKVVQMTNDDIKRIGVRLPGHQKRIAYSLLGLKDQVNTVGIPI
Method for EphA3: Cells were plated in 24-well dishes at a density of 100,000 cells/well and grown for 24 hours prior to stimulation with appropriate compounds and ephrins for the given amounts of time. Compounds were prepared in DMSO at 500 times the final concentrations and 0.2% DMSO was used as vehicle control. Following treatment, cells were lysed directly in SDS Gel Loading Buffer and immunoblotted as described previously. […] For immunoprecipitation, 300,000 cells/well were plated in 6-well dishes and lysed in modified RIPA Buffer (20 mM Tris-HCl pH 7.4, 20 mM NaF, 150 mM NaCl, 10% glycerol, 0.1% SDS, 0.5% DCA, 2 mM EDTA, 1% Triton X-100) following treatment. Either 10 μg of ephrin-A1-Fc, or 4 mg of EphA2 mouse monoclonal antibody (Clone D7, Millipore) were used, and mouse IgG was used as a negative control for EphA2 IP. […] For this purpose, HEK 293 cell lines overexpressing EphA1, EphA2, EphA3, EphA4, and EphB3 kinases were utilized.

With `COc1cc2nc(N3CCN(C(=O)C4COc5ccccc5O4)CC3)nc(N)c2cc1OC` (centres unmarked) [Doxazosin, 2-[4-(2,3-Dihydro-1,4-benzodioxine-2-carbonyl)piperazin-1-yl]-6,7-dimethoxyquinazolin-4-amine], in assay [1], the concentration for half-maximal inhibition (IC50) was 0.74 ± 0.3 nM. Further, the EphA2 internalization entry on EphA2 is “stimulated significant EphA2 internalization”. In assay [2], the “haptotactic cell migration toward fibronectin” value is “dose-dependent inhibition of cell migration”. The EphA3 activation entry at EphA3 is on record as “activation of EphA3 was weak”. For the same compound, the subcutaneous xenograft growth entry in assay [3] was “moderately decrease subcutaneous growth of DU145 and PC-3 cell xenografts”.

The values above are taken from patent US11944624B2, “Peptide and small molecule agonists of EphA and their uses” (CASE WESTERN RESERVE UNIVERSITY, priority 2017, dated 2024).
